Data as given in PubChem BioAssay (NCI).
Several values for one entry are separate records, joined by “and”; a condition that tells them apart may be missing. Identical values can stand only once.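 Growth conditions: 96-well plates. Treatment: test compound, 48 hours, 5 concentrations. Analysis: linear interpolation between bracketing concentrations; unreached endpoints set to highest concentration. Here, GI50 denotes the concentration required for 50% inhibition of growth. At the TGI there is no net growth.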

Key:
Test in all cases: growth of human tumour cells (NCI), 48 h
MOLT-4 leukemia = system: MOLT-4 leukemia
OVCAR-8 ovarian = system: OVCAR-8 ovarian
MDA-MB-231 breast = system: MDA-MB-231 breast
SNB-19 CNS = system: SNB-19 CNS
SF-295 CNS = system: SF-295 CNS
NCI-H226 lung = system: NCI-H226 lung
DU-145 prostate = system: DU-145 prostate
OVCAR-4 ovarian = system: OVCAR-4 ovarian
K-562 leukemia = system: K-562 leukemia
UACC-257 melanoma = system: UACC-257 melanoma
OVCAR-5 ovarian = system: OVCAR-5 ovarian
SK-OV-3 ovarian = system: SK-OV-3 ovarian
EKVX NSCLC = system: EKVX NSCLC
MCF7 breast = system: MCF7 breast
PC-3 prostate = system: PC-3 prostate
NCI/ADR-RES ovarian = system: NCI/ADR-RES ovarian
UO-31 renal = system: UO-31 renal
HCT-15 colon = system: HCT-15 colon
SN12C renal = system: SN12C renal
RPMI-8226 leukemia = system: RPMI-8226 leukemia
SR leukemia = system: SR leukemia
RXF 393 renal = system: RXF 393 renal
SNB-75 CNS = system: SNB-75 CNS
ACHN renal = system: ACHN renal
IGROV1 ovarian = system: IGROV1 ovarian
HL-60(TB) leukemia = system: HL-60(TB) leukemia
SF-268 CNS = system: SF-268 CNS
NCI-H522 lung = system: NCI-H522 lung
HS 578T breast = system: HS 578T breast
HOP-62 NSCLC = system: HOP-62 NSCLC
M14 melanoma = system: M14 melanoma
SK-MEL-28 melanoma = system: SK-MEL-28 melanoma
SF-539 CNS = system: SF-539 CNS
MDA-MB-435 = system: MDA-MB-435
HCT-116 colon = system: HCT-116 colon
A498 renal = system: A498 renal
SK-MEL-5 melanoma = system: SK-MEL-5 melanoma
786-0 renal = system: 786-0 renal
BT-549 breast = system: BT-549 breast
COLO 205 colon = system: COLO 205 colon
LOX IMVI melanoma = system: LOX IMVI melanoma
SK-MEL-2 melanoma = system: SK-MEL-2 melanoma
UACC-62 melanoma = system: UACC-62 melanoma
HCC-2998 colon = system: HCC-2998 colon
U251 CNS = system: U251 CNS

In the case of `CC(=O)OC[C@]12CC[C@H]3[C@@H](C[C@H]4O[C@]45CC=CC(=O)[C@]35C)[C@]1(O)CC[C@@]2(O)[C@@](C)(O)C1CC(C)=C(C)C(=O)O1` (some centres undefined), the TGI (MOLT-4 leukemia) is reported as greater than 36.2 µM, the TGI (OVCAR-8 ovarian) is reported as greater than 32.1 µM and the TGI (MDA-MB-231 breast) is reported as greater than 23.6 µM. For the same compound, the TGI (SNB-19 CNS) was greater than 35.4 µM, the TGI (SF-295 CNS) was greater than 32.5 µM and the TGI (NCI-H226 lung) was greater than 20 µM. The TGI (DU-145 prostate) was greater than 32.8 µM, the TGI (OVCAR-4 ovarian) was greater than 34.9 µM and the TGI (K-562 leukemia) was greater than 100 µM. The TGI (UACC-257 melanoma) was greater than 32.8 µM, the TGI (OVCAR-5 ovarian) was greater than 20.1 µM and the TGI (SK-OV-3 ovarian) was greater than 23.7 µM. For the same compound, the TGI (EKVX NSCLC) was greater than 30.4 µM, the TGI (MCF7 breast) was greater than 25.3 µM and the TGI (PC-3 prostate) was greater than 26.1 µM. For the same compound, the GI50 (NCI/ADR-RES ovarian) was greater than 23.6 µM, the TGI (NCI/ADR-RES ovarian) was greater than 100 µM and the TGI (UO-31 renal) was greater than 25 µM. The TGI (HCT-15 colon) was greater than 33.6 µM, the TGI (SN12C renal) was greater than 32 µM and the GI50 (RPMI-8226 leukemia) was greater than 100 µM. For the same compound, the TGI (RPMI-8226 leukemia) was greater than 100 µM and the TGI (SR leukemia) was greater than 38 µM.

For `CC(=O)OCC1OC(n2c(-c3ccccc3)cc(-c3ccccc3)c(C#N)c2=O)C(OC(C)=O)C(OC(C)=O)C1OC(C)=O` (centres undefined), the TGI (RXF 393 renal) was greater than 100 µM, the GI50 (SNB-75 CNS) was 22 µM and 98.5 µM and the TGI (SNB-75 CNS) was greater than 100 µM. The GI50 (RPMI-8226 leukemia) was 16 µM and 39.7 µM and the TGI (RPMI-8226 leukemia) was greater than 100 µM.

`COc1cc(-c2c(C#N)c(N)n3c(nc4ccccc43)c2C#N)cc(Br)c1OC` was tested, and the GI50 (ACHN renal) was greater than 100 µM, the TGI (ACHN renal) was greater than 100 µM and the GI50 (MOLT-4 leukemia) was greater than 100 µM. The TGI (MOLT-4 leukemia) was greater than 100 µM, the GI50 (IGROV1 ovarian) was 97.5 µM and the TGI (IGROV1 ovarian) was greater than 100 µM. The GI50 (HL-60(TB) leukemia) was greater than 100 µM, the TGI (HL-60(TB) leukemia) was greater than 100 µM and the GI50 (SF-268 CNS) was 77.5 µM. The TGI (SF-268 CNS) was greater than 100 µM, the GI50 (NCI-H522 lung) was 79.7 µM and the TGI (NCI-H522 lung) was greater than 100 µM. It also gave a GI50 (HS 578T breast) of 2.71 µM, a TGI (HS 578T breast) greater than 100 µM and a GI50 (MDA-MB-231 breast) of 2.46 µM. For the same compound, the TGI (MDA-MB-231 breast) was greater than 100 µM, the GI50 (HOP-62 NSCLC) was greater than 100 µM and the TGI (HOP-62 NSCLC) was greater than 100 µM. For the same compound, the GI50 (SNB-19 CNS) was greater than 100 µM, the TGI (SNB-19 CNS) was greater than 100 µM and the GI50 (SF-295 CNS) was greater than 100 µM. It also gave a TGI (SF-295 CNS) greater than 100 µM, a GI50 (RXF 393 renal) of 4.37 µM and a TGI (RXF 393 renal) greater than 100 µM. For the same compound, the GI50 (M14 melanoma) was greater than 100 µM, the TGI (M14 melanoma) was greater than 100 µM and the GI50 (SK-MEL-28 melanoma) was greater than 100 µM. For the same compound, the TGI (SK-MEL-28 melanoma) was greater than 100 µM, the GI50 (SF-539 CNS) was greater than 100 µM and the TGI (SF-539 CNS) was greater than 100 µM. The GI50 (NCI-H226 lung) was greater than 100 µM, the TGI (NCI-H226 lung) was greater than 100 µM and the GI50 (MDA-MB-435) was greater than 100 µM. It also gave a TGI (MDA-MB-435) greater than 100 µM, a GI50 (K-562 leukemia) greater than 100 µM and a TGI (K-562 leukemia) greater than 100 µM. For the same compound, the GI50 (HCT-116 colon) was 4.77 µM, the TGI (HCT-116 colon) was greater than 100 µM and the GI50 (UACC-257 melanoma) was greater than 100 µM. It also gave a TGI (UACC-257 melanoma) greater than 100 µM, a GI50 (A498 renal) greater than 100 µM and a TGI (A498 renal) greater than 100 µM. The GI50 (SK-MEL-5 melanoma) was 3.3 µM, the TGI (SK-MEL-5 melanoma) was greater than 100 µM and the GI50 (786-0 renal) was 6.24 µM. The TGI (786-0 renal) was greater than 100 µM, the GI50 (OVCAR-5 ovarian) was greater than 100 µM and the TGI (OVCAR-5 ovarian) was greater than 100 µM. The GI50 (SK-OV-3 ovarian) was greater than 100 µM, the TGI (SK-OV-3 ovarian) was greater than 100 µM and the GI50 (SNB-75 CNS) was 2.18 µM. It also gave a TGI (SNB-75 CNS) of 9.98 µM, a GI50 (BT-549 breast) greater than 100 µM and a TGI (BT-549 breast) greater than 100 µM. For the same compound, the GI50 (PC-3 prostate) was 4.4 µM, the TGI (PC-3 prostate) was greater than 100 µM and the GI50 (NCI/ADR-RES ovarian) was greater than 100 µM. The TGI (NCI/ADR-RES ovarian) was greater than 100 µM, the GI50 (COLO 205 colon) was greater than 100 µM and the TGI (COLO 205 colon) was greater than 100 µM. The GI50 (UO-31 renal) was 4.13 µM, the TGI (UO-31 renal) was greater than 100 µM and the GI50 (LOX IMVI melanoma) was greater than 100 µM. The TGI (LOX IMVI melanoma) was greater than 100 µM, the GI50 (SK-MEL-2 melanoma) was 47.5 µM and the TGI (SK-MEL-2 melanoma) was greater than 100 µM. It also gave a GI50 (UACC-62 melanoma) of 28.3 µM, a TGI (UACC-62 melanoma) greater than 100 µM and a GI50 (HCC-2998 colon) greater than 100 µM. The TGI (HCC-2998 colon) was greater than 100 µM, the GI50 (U251 CNS) was 4.47 µM and the TGI (U251 CNS) was greater than 100 µM. For the same compound, the GI50 (HCT-15 colon) was greater than 100 µM, the TGI (HCT-15 colon) was greater than 100 µM and the GI50 (RPMI-8226 leukemia) was 6.83 µM. It also gave a TGI (RPMI-8226 leukemia) greater than 100 µM.
